Measurements taken from paper PMC6585443 (ACS infectious diseases, 2018).
Converted amounts (≈) assume the structure as drawn.

Key:
[1] = system: human kinases involved in cellular proliferation; details: cited from earlier work
[2] = system: P. falciparum W2; assay: P. falciparum W2 antimalarial activity; format: cell-based, Plasmodium falciparum; details: less potent against W2 (CQ resistant) than D6
[3] = system: P. berghei; assay: modified Thompson in vivo infection model; details: mice, intraperitoneal 160 mg/kg/day × 3 days; for parasitemia: days 3 to 5 post-infection
[4] = aqueous solubility pH 7.4; format: physicochemical
[5] = system: P. falciparum D6; assay: P. falciparum D6 antimalarial activity; format: cell-based, Plasmodium falciparum; details: D6 strain
[6] = system: P. falciparum C235; assay: P. falciparum C235 antimalarial activity; format: cell-based, Plasmodium falciparum; details: less potent against C235 (CQ, MQ, pyrimethamine resistant) than D6
[7] = biological target: MAP4K4 (Homo sapiens, UniProt O95819); assay: human kinase panel at 5 μM; format: biochemical; details: test concentration 5 μM
Sequence of MAP4K4 (O95819 whole entry): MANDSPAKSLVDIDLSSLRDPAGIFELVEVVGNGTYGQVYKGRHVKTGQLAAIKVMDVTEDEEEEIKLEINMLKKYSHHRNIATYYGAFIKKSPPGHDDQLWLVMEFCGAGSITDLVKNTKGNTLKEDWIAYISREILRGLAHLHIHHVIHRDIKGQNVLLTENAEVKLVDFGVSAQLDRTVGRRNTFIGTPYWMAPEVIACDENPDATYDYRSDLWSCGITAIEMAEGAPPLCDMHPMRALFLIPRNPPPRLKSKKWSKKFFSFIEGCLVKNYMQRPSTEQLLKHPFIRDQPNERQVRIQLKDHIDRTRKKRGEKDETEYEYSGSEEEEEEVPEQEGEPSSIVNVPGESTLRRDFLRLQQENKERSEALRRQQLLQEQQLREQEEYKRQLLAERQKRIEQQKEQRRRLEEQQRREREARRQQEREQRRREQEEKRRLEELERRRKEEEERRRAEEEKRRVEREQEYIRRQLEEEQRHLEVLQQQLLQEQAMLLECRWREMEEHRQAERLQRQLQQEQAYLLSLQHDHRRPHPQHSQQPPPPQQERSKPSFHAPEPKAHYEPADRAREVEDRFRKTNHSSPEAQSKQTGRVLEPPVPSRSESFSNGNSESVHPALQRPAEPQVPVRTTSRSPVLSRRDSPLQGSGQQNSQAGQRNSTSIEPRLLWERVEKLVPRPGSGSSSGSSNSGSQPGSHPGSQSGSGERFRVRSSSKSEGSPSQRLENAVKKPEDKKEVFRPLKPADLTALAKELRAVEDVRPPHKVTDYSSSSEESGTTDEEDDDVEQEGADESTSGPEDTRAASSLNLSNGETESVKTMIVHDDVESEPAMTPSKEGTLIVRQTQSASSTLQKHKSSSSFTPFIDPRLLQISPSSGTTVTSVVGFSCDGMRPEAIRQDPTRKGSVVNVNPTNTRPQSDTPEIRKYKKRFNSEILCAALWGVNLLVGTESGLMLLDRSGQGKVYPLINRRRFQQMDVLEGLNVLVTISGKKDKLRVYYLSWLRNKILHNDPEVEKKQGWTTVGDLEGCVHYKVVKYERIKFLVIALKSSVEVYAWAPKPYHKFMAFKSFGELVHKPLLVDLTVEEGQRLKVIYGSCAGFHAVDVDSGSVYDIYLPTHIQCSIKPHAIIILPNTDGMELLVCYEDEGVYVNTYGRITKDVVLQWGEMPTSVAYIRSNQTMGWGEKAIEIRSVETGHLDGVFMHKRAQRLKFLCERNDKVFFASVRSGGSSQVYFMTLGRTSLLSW

[8] = system: panel of human kinases; assay: human kinase panel at 5 μM; format: biochemical; details: test concentration 5 μM
[9] = biological target: EGFR (Homo sapiens, UniProt P00533); assay: human kinase panel at 5 μM; format: biochemical; details: test concentration 5 μM
[10] = biological target: KDR (Homo sapiens, UniProt P35968); assay: human kinase panel at 5 μM; format: biochemical; details: test concentration 5 μM
Sequence of KDR (P35968 20-1356): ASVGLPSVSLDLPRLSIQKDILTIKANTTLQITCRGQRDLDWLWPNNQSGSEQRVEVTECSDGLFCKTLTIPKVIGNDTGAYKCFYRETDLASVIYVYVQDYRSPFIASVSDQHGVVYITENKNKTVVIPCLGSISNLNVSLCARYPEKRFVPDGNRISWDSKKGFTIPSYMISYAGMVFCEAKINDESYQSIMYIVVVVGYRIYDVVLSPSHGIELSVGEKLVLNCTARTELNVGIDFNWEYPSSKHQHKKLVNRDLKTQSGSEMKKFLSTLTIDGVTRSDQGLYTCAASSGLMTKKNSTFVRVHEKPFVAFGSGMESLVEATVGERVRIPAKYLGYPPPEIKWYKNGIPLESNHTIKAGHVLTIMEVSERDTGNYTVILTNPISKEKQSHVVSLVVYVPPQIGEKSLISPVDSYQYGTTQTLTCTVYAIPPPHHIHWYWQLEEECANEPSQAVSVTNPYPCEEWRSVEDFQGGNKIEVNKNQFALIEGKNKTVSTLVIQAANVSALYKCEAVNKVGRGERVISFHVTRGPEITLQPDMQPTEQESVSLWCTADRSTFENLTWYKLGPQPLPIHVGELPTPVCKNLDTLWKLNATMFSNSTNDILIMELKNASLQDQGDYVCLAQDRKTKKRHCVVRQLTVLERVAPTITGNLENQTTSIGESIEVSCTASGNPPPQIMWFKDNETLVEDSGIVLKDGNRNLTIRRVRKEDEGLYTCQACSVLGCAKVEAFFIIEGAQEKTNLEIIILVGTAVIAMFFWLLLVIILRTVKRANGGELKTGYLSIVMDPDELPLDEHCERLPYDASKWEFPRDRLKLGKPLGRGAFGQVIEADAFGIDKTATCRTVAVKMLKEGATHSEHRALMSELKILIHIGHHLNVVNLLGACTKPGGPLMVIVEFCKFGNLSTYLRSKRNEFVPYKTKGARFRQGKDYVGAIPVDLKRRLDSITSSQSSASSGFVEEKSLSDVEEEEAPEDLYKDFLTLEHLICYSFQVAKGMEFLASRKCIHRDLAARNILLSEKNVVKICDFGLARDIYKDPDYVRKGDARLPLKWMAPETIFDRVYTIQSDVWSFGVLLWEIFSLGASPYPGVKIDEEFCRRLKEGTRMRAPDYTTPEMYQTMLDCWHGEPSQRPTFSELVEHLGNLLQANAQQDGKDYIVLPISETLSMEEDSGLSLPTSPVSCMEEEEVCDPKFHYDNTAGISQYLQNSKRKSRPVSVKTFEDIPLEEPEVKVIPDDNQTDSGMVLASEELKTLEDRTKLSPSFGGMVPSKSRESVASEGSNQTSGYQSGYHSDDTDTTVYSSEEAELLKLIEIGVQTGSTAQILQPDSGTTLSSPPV

[11] = biological target: Abl (Homo sapiens, UniProt P00519); assay: human kinase panel at 5 μM; format: biochemical; details: test concentration 5 μM
Sequence of Abl (P00519 whole entry): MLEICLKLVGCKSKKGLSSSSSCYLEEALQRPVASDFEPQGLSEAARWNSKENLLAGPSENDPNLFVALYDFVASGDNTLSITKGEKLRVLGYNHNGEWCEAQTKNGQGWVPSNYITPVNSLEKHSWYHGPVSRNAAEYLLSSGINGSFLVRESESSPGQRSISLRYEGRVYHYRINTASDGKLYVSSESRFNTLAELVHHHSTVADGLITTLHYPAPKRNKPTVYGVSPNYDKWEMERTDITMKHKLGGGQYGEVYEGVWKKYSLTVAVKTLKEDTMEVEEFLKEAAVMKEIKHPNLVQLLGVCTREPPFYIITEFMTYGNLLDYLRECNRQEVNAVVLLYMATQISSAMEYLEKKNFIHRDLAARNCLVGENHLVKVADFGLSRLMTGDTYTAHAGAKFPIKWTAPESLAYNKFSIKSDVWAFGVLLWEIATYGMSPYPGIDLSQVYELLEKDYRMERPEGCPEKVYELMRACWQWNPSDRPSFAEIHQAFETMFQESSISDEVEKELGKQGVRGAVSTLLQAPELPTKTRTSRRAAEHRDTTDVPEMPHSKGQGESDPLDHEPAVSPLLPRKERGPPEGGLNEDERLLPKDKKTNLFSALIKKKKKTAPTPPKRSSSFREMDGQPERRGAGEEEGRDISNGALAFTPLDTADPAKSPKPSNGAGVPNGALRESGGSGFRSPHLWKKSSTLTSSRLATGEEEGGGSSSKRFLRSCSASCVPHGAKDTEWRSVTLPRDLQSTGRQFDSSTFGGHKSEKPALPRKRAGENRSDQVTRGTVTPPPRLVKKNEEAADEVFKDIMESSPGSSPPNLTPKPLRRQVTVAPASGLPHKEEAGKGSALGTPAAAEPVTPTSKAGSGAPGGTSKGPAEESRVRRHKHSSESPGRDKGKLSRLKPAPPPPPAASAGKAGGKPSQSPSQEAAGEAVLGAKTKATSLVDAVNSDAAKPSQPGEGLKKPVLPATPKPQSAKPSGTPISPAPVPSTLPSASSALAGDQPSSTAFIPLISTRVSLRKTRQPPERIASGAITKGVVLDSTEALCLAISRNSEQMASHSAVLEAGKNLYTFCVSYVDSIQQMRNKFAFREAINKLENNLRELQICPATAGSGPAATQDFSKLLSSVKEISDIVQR

[12] = rat hepatocyte intrinsic clearance; format: in vitro ADME; details: rat hepatocytes
[13] = biological target: T1, Aurora A (Homo sapiens, UniProt O14965); assay: human kinase panel at 5 μM; format: biochemical; details: test concentration 5 μM
T1 sequence (O14965 1-403): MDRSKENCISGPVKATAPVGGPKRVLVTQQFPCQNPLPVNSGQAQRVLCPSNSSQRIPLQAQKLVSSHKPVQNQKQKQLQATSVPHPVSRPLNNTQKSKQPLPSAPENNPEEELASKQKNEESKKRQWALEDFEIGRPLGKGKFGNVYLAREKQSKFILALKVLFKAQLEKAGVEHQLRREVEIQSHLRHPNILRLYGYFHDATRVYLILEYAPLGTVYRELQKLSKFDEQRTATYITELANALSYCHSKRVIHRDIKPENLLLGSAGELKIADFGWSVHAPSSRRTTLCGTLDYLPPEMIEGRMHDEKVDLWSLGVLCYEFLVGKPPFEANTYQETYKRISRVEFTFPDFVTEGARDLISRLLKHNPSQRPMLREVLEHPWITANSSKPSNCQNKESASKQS

[14] = biological target: MNK2 (Homo sapiens, UniProt Q9HBH9); assay: human kinase panel at 5 μM; format: biochemical; details: test concentration 5 μM
Sequence of MNK2 (Q9HBH9 whole entry): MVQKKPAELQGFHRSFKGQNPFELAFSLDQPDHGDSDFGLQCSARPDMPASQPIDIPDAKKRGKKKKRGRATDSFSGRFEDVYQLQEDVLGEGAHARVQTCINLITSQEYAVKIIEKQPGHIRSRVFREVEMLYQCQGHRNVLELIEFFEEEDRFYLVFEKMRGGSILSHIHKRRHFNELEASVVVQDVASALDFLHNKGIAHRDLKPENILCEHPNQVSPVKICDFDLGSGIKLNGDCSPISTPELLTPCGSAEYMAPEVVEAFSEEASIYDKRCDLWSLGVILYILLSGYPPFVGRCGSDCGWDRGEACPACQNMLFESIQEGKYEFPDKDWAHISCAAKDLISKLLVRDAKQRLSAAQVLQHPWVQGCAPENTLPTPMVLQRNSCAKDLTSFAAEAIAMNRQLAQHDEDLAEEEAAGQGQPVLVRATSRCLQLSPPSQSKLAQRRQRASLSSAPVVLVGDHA

[15] = human liver microsome intrinsic clearance; format: in vitro ADME; details: liver microsomes
[16] = LogD7.4; format: physicochemical; details: pH 7.4
[17] = aqueous solution at pH 7.4, pH 7.4, aqueous buffer

CS(=O)(=O)CCNCc1ccc(-c2ccc3ncnc(Nc4ccc(OCc5cccc(F)c5)c(Cl)c4)c3c2)o1 [Compound 1, lapatinib]
selectivity versus numerous human kinases [1]: > 300 fold

COc1ccc(Nc2ccnc3cc(-c4ccc(S(=O)(=O)N5CCN(C)CC5)cc4)ccc23)cc1Cl [Compound 7, N-(3-Chloro-4-methoxyphenyl)-7-{4-[(4-methylpiperazin-1-yl)sulfonyl]phenyl}quinolin-4-amine]
activity against W2 strain relative to D6 (fold) [2]: > 3 fold | life extension compared to the control group [3]: 5 days | parasitemia [3]: reduction in parasitemia | solubility ([4]; aqueous medium, pH 7.4, aqueous buffer): 100 µM (≈ 52.3 µg/mL)

Cc1ccc(Nc2ccnc3cc(-c4ccc(S(=O)(=O)N5CCN(C)CC5)cc4)ccc23)cc1Cl [Compound 11, N-(3-Chloro-4-methylphenyl)-7-{4-[(4-methylpiperazin-1-yl)sulfonyl]phenyl}quinolin-4-amine]
activity against W2 strain relative to D6 (fold) [2]: > 3 fold

CN1CCN(S(=O)(=O)c2ccc(-c3ccc4c(Nc5cccnc5)ccnc4c3)cc2)CC1 [Compound 12, 7-{4-[(4-Methylpiperazin-1-yl)sulfonyl]phenyl}-N-(pyridin-3-yl)quinolin-4-amine]
reduction in potency compared to 3 [5]: 10 fold

CN1CCN(S(=O)(=O)c2ccc(-c3ccc4c(Nc5cnccn5)ccnc4c3)cc2)CC1 [Compound 14, 7-{4-[(4-Methylpiperazin-1-yl)sulfonyl]phenyl}-N-(pyrazin-2-yl)quinolin-4-amine]
activity against W2 strain relative to D6 (fold) [2]: > 3 fold

CN1CCN(S(=O)(=O)c2ccc(-c3ccc4c(Nc5cnc(C#N)cn5)ccnc4c3)cc2)CC1 [Compound 19, 5-[(7-{4-[(4-Methylpiperazin-1-yl)sulfonyl]phenyl}quinolin-4-yl)amino]pyrazine-2-carbonitrile]
activity against W2 strain relative to D6 (fold) [2]: > 3 fold

CN1CCN(S(=O)(=O)c2ccc(-c3ccc4c(Nc5ncc(Cl)cn5)ccnc4c3)cc2)CC1 [Compound 21, N-(5-Chloropyrimidin-2-yl)-7-{4-[(4-methylpiperazin-1-yl)sulfonyl]phenyl}quinolin-4-amine]
activity against C235 strain relative to D6 (fold) [6]: > 3 fold | activity against W2 strain relative to D6 (fold) [2]: > 3 fold

Cc1nnc(Nc2ccnc3cc(-c4ccc(S(=O)(=O)N5CCN(C)CC5)cc4)ccc23)nc1C [Compound 23, N-(Dimethyl-1,2,4-triazin-3-yl)-7-{4-[(4-methylpiperazin-1-yl)sulfonyl]phenyl}quinolin-4-amine]
activity against W2 strain relative to D6 (fold) [2]: > 3 fold

Cc1cc(Nc2ccnc3cc(-c4ccc(S(=O)(=O)N5CCN(C)CC5)cc4)ccc23)sn1 [Compound 24, N-(3-Methyl-1,2-thiazol-5-yl)-7-{4-[(4-methylpiperazin-1-yl)sulfonyl]phenyl}quinolin-4-amine]
activity against W2 strain relative to D6 (fold) [2]: > 3 fold

CN1CCN(c2nsnc2-c2ccc3c(Nc4ccc(OCc5cccc(F)c5)c(Cl)c4)ccnc3c2)CC1 [Compound 30, N-(3-Chloro-4-((3-fluorobenzyl)oxy)phenyl)-7-(4-(4-methylpiperazin-1-yl)-1,2,5-thiadiazol-3-yl)quinolin-4-amine]
reduction in potency compared to 3 [5]: six-fold reduction in potency

CC(C)(C)OC(=O)Nc1ccc2c(Nc3ccc(OCc4cccc(F)c4)c(Cl)c3)ccnc2c1 [Compound 36, Tert-butyl (4-((3-Chloro-4-((3-fluorobenzyl)oxy)phenyl)amino)quinolin-7-yl)carbamate]
activity against W2 strain relative to D6 (fold) [2]: > 3 fold | reduction in potency compared to 3 [5]: almost three-fold drop in potency

CN1CCN(c2ncc(-c3ccc4c(Nc5cnccn5)ccnc4c3)cn2)CC1 [Compound 40, 7-(2-(4-Methylpiperazin-1-yl)pyrimidin-5-yl)-N-(pyrazin-2-yl)quinolin-4-amine]
inhibition of MAP4K4 [7]: significant inhibition | number of kinases with insignificant inhibition [8]: 28 kinases | number of kinases with moderate to weak inhibition [8]: 10 kinases | inhibition of EGFR [9]: significant inhibition | inhibition of KDR [10]: significant inhibition | inhibition of Abl [11]: significant inhibition | Rat Hepatocyte CLint [12]: 130 μL/min/10^6 | parasitemia [3]: reduction in parasitemia | inhibition of Aurora A [13]: significant inhibition | inhibition of MNK2 [14]: significant inhibition

COc1ccc(Nc2ccnc3cc(-c4cnc(N5CCN(C)CC5)nc4)ccc23)cc1Cl [Compound 41, N-(3-Chloro-4-methoxyphenyl)-7-(2-(4-methylpiperazin-1-yl)pyrimidin-5-yl)quinolin-4-amine]
Rat Hepatocyte CLint [12]: 45 μL/min/10^6 | solubility [4, 17]: < 1 µM

CN1CCN(c2ncc(-c3ccc4c(Nc5ccc6[nH]nnc6c5)ccnc4c3)cn2)CC1 [Compound 42, N-(1H-Benzo[d][1,2,3]triazol-5-yl)-7-(2-(4-methylpiperazin-1-yl)pyrimidin-5-yl)quinolin-4-amine]
Rat Hepatocyte CLint [12]: 51 μL/min/10^6 | microsomal CLint [15]: 120 µL/min/mg | logD [16]: 3.3 | solubility [4, 17]: < 1 µM

c1cnc(Nc2ccnc3cc(-c4cn[nH]c4)ccc23)cn1 [Compound 43, N-(Pyrazin-2-yl)-7-(1H-pyrazol-4-yl)quinolin-4-amine]
Rat Hepatocyte CLint [12]: 5.0 μL/min/10^6 | microsomal CLint [15]: 130 µL/min/mg | logD [16]: 2.6 | solubility [4, 17]: 1 µM (≈ 0.288 µg/mL)

COc1ccc(Nc2ccnc3cc(-c4cn[nH]c4)ccc23)cc1Cl [Compound 44, N-(3-Chloro-4-methoxyphenyl)-7-(1H-pyrazol-4-yl)quinolin-4-amine]
Rat Hepatocyte CLint [12]: 5.0 μL/min/10^6 | microsomal CLint [15]: 8 µL/min/mg | logD [16]: 3.5 | solubility [4, 17]: 2 µM (≈ 0.702 µg/mL)

CN1CCN(c2ccc(Nc3ccc4c(Nc5cnccn5)ccnc4c3)cc2)CC1 [Compound 45, N^7-(4-(4-Methylpiperazin-1-yl)phenyl)-N^4-(pyrazin-2-yl)quinoline-4,7-diamine]
Rat Hepatocyte CLint [12]: 10 μL/min/10^6 | logD [16]: 2.2

CN1CCN(c2ccnc(Nc3ccc4c(Nc5cnccn5)ccnc4c3)n2)CC1 [Compound 46, N^7-(4-(4-Methylpiperazin-1-yl)pyrimidin-2-yl)-N^4-(pyrazin-2-yl)quinoline-4,7-diamine]
Rat Hepatocyte CLint [12]: 9.3 μL/min/10^6 | logD [16]: 2.8

COc1ccc(Nc2ccnc3cc(Nc4nccc(N5CCN(C)CC5)n4)ccc23)cc1Cl [Compound 47, N^4-(3-Chloro-4-methoxyphenyl)-N^7-(4-(4-methylpiperazin-1-yl)pyrimidin-2-yl)quinoline-4,7-diamine]
Rat Hepatocyte CLint [12]: 7.2 μL/min/10^6 | logD [16]: 3.3 | solubility [4, 17]: 570 µM (≈ 271 µg/mL)

CN1CCN(c2nccc(Nc3ccc4c(Nc5cnccn5)ccnc4c3)n2)CC1 [Compound 48, N^7-(2-(4-Methylpiperazin-1-yl)pyrimidin-4-yl)-N^4-(pyrazin-2-yl)quinoline-4,7-diamine]
logD [16]: 2.9

COc1ccc(Nc2ccnc3cc(Nc4ccnc(N5CCN(C)CC5)n4)ccc23)cc1Cl [Compound 49, N^4-(3-Chloro-4-methoxyphenyl)-N^7-(2-(4-methylpiperazin-1-yl)pyrimidin-4-yl)quinoline-4,7-diamine]
Rat Hepatocyte CLint [12]: 2.3 μL/min/10^6 | microsomal CLint [15]: 45 µL/min/mg
